“Also recorded” adds a separate entry of the source. Like-named read-outs stand apart in the source and are kept apart here.
Columns and labels:
serum DPP IV [1] = target: serum DPP IV (Mus musculus, UniProt P28843); assay: In vivo inhibition of serum DPP IV in db/db mice after oral dose; details: for activity at 0.0025 mg/kg / activity at 0.01 mg/kg / activity at 0.025 mg/kg: mouse, iv, Diabetic-control = 100.00; for activity at 0.0025 mg/kg: read-out: In vivo inhibition of serum DPP IV, 0.0025 mg/kg; for activity at 0.01 mg/kg: read-out: In vivo inhibition of serum DPP IV, 0.01 mg/kg; for activity at 0.025 mg/kg: read-out: In vivo inhibition of serum DPP IV, 0.025 mg/kg
Serum DPP IV [2] = target: T1, Serum DPP IV (Rattus norvegicus, UniProt P14740); assay: Serum DPP IV activity in rats as a function of time after dosing; type: in vivo
T1 construct: Serum DPP IV activity in rats as a function of time; from tissue; host or cells: rat serum
Experimental: FIG. 8 Serum DPP IV activity in rats as a function of time following a single oral dose of 0.025 mg/kg. Each bar represents the average of four rats.
Each bar represents the average of four rats.

DB/DB mice [3] = assay: Fasting blood glucose in db/db (diabetic) mice; type: in vivo
Experimental: A dose of 1.7 mg corresponds to the 0.05 mg/kg dose.
Exendin is in phase 3 clinical trials for the treatment of type 2 diabetes (Amylin). Exendin-4 is widely regarded as the most powerful agent currently know for lowering fasting blood glucose levels and for improving glycemic control in diabetics.

DB/DB mice [4] = tested on: DB/DB mice
DPP IV = DPP IV (Homo sapiens, UniProt P27487); assay: In vitro DPP IV enzyme inhibition assay; inhibitors incubated at pH 2 or pH 8, then added to enzyme assay solution at pH 8.0; type: biochemical
Experimental: Inhibitors were incubated overnight in pH 2 or pH 8 solutions and then added directly to an enzyme assay solution at pH 8.0.
It is important to note that the x-axis in FIG. 3 refers to the concentration of the SPI, not the concentration of the released Xaa-boroPro.

Zucker rats = assay: Toxicity (mortality) after oral dose in rats; type: in vivo; details: rats, dose equivalent to 0.35 mg/kg of Val-boroPro (FIG. 6)
male Sprague-Dawley rats [5] = assay: Example 10: clinical signs and mortality after single oral administration in male rats; details: 2.5 mg/kg ALA-PRO boronic dose equivalents;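 further: test articles given by mouth, formulated in deionized Type I water as vehicle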
male Sprague-Dawley rats [6] = details: rat, in vivo
[7] = pH 2, ten minutes, read-out: IC50 Values at Ten Minutes pH 2
[8] = pH 8, ten minutes, read-out: IC50 Values at Ten Minutes pH 8

Chain of DPP IV (P27487 whole entry, species assumed): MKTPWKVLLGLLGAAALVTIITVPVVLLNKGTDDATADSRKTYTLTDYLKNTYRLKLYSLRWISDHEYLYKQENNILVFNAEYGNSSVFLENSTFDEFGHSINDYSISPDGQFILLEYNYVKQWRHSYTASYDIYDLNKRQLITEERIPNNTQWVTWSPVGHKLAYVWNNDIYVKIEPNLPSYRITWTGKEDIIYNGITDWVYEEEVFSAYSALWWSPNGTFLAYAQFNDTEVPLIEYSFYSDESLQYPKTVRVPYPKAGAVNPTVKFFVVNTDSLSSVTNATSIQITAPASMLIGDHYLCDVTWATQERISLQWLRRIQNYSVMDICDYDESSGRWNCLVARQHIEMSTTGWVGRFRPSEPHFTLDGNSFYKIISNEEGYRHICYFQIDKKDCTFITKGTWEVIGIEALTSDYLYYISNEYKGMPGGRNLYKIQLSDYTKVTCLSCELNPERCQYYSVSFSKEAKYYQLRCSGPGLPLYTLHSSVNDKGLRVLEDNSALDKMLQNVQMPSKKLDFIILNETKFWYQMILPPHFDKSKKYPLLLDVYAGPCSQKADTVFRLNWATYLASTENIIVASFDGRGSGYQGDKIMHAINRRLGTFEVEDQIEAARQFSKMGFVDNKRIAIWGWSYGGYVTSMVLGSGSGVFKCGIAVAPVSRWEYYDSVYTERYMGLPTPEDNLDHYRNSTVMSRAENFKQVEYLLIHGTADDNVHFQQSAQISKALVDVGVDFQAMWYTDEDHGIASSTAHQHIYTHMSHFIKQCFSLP
Chain of serum DPP IV (P28843 37-760 limits assumed): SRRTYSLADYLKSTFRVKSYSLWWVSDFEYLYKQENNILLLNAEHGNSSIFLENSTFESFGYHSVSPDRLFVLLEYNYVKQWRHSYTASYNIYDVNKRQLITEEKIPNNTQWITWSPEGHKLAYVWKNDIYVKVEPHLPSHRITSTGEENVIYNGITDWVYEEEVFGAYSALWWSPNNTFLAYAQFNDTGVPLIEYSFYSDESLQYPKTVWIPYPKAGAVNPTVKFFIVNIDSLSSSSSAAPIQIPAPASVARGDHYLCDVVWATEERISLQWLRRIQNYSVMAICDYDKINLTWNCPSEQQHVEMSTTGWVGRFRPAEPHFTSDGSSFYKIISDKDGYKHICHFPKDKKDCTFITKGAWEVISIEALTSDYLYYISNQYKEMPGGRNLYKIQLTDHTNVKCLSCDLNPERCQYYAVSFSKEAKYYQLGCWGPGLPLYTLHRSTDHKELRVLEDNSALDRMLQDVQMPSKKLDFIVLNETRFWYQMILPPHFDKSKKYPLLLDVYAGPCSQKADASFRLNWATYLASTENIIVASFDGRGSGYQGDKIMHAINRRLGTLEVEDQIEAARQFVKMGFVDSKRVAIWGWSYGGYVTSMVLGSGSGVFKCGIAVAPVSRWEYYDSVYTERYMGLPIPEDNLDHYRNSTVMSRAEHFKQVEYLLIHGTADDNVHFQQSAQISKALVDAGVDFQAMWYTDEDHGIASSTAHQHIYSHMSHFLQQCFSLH
T1 sequence (P14740 37-767 limits assumed): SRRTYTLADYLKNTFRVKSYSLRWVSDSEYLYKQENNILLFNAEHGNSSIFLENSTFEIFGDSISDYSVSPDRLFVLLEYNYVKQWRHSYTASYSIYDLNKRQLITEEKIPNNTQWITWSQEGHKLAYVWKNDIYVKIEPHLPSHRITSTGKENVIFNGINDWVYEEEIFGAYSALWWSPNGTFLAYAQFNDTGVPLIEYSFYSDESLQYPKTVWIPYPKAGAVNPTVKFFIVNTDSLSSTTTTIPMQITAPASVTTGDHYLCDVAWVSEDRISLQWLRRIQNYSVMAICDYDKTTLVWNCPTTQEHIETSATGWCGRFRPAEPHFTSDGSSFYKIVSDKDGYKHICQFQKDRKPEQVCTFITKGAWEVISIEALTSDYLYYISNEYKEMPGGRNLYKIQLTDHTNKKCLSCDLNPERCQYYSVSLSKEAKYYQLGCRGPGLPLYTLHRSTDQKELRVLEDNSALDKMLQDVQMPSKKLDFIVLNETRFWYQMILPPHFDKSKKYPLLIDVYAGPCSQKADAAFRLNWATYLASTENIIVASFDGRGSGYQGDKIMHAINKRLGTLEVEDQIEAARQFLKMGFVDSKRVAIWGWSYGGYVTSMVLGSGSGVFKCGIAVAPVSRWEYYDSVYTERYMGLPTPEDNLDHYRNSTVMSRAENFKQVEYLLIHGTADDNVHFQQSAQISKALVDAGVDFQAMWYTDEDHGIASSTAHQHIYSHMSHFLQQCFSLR

Molecule: CC(C)C(NC(=O)C1CCCN1C(=O)C(N)C1CCCCC1)C(=O)N1CCCC1B(O)O (stereo not drawn) [ChgProValboroPro, Cyclohexylglycine-Proline-Valine-boroPro line]
- Oral activity in mice compared with Val-boroPro (serum DPP IV [1]; db/db mice (Table 3)): outperforms Val-boroPro in mice
- activity at 0.0025 mg/kg (serum DPP IV [1]; 1 hr Post Rx-Glucose): 84.5%
- activity at 0.0025 mg/kg (serum DPP IV [1]; 4 hrs Post Rx-Glucose): 81.8%
- activity at 0.01 mg/kg (serum DPP IV [1]; 1 hr Post Rx-Glucose): 48.9%
- activity at 0.01 mg/kg (serum DPP IV [1]; 4 hrs Post Rx-Glucose): 40.7%
- activity at 0.025 mg/kg (serum DPP IV [1]; 1 hr Post Rx-Glucose): 34.7%
- activity at 0.025 mg/kg (serum DPP IV [1]; 4 hrs Post Rx-Glucose): 24.4%
- Potency, duration and safety in vivo in rats compared with ValboroPro (Serum DPP IV [2]; rats, each bar average of four animals (FIG. 62)): more potent, longer acting, and safer than ValboroPro
- Inhibition of serum DPP IV activity compared with Val-boroPro (Serum DPP IV [2]; rats, single oral dose of 0.025 mg/kg, average of four rats (FIG. 8), 0.025 mg/kg): outperforms Val-boroPro in inhibiting serum DPP IV activity; also recorded: outperforms Val-boroPro in inhibition serum DPP IV enzyme activity
- Oral activity: serum DPP IV activity in rats (Serum DPP IV [2]; three different doses given orally (FIG. 6, 7)): very orally active; also recorded: orally active
- Lowering fasting blood glucose compared with GLP-1 (DB/DB mice [3]; db/db mice, dose of 1.7 mg corresponds to the 0.05 mg/kg dose (FIG. 65)): outperforms GLP-1 in lowering fasting blood glucose
- Lowering fasting blood glucose compared with exendin-4 (DB/DB mice [3]; diabetic (db/db) mice (FIG. 66, 67)): as effective as exendin-4 in lowering fasting blood glucose; also recorded: does about what the highest dose of exendin-4 could be expected to do
- Glucose excursion following an oral glucose challenge (DB/DB mice [4]; DB/DB mice, OGTT four hours post oral dose, dose equivalent to 0.05 mg/kg of Val-boroPro (FIG. 9)): markedly outperforms Val-boroPro in lowering the glucose excursion
- Oral glucose tolerance test performance (DB/DB mice [4]; db/db mice, single oral dose of 0.05 mg/kg three hours before oral glucose challenge (FIG. 63)): performs better than ValboroPro
- IC50 (DPP IV; pH 2, read-out: Tetrapeptide Prodrugs (IC50) pH 2): 65 nM
- IC50 (DPP IV; [7]): 70 nM
- IC50 (DPP IV; pH 8, read-out: Tetrapeptide Prodrugs (IC50) pH 8): 72 nM
- IC50 (DPP IV; [8]): 70 nM
- Mortality (rats killed) (Zucker rats): one of four

Molecule: CNCC(=O)N1CC=CC1C(=O)NC(C)C(=O)N1CCCC1B(O)O (stereo not drawn) [SarDhpAlaboroPro, N-Me-Gly-3,4 dehydroproline-ALA-PRO Boronic Acid]
- IC50 (DPP IV; [7]): 39 nM
- IC50 (DPP IV; [8]): 34 nM
- Approximate Time of Sacrifice or Time Animal was Found Dead (hr post-dose) (male Sprague-Dawley rats [5]): ~4 h (sacrificed)
- Approximate Time of Sacrifice or Time Animal was Found Dead (hr post-dose) (male Sprague-Dawley rats [6]): ~7 h (found dead)

Molecule: exendin-4: in phase 3 clinical trials for the treatment of type 2 diabetes (Amylin); powerful agent for lowering fasting blood glucose [reference compound]
- Effect in lowering fasting blood glucose as a function of hyperglycemia (DB/DB mice [3]; FIG. 67): The greater the hyperglycemia the greater is the effect

From patent US9629921B2, “Smart pro-drugs of serine protease inhibitors” (Trustees of Tufts College, priority 2002, dated 2017)
